# Data reported in PMC11919252 (eLife, 2025).
# System: CGRP receptor (Calcrl and Ramp1) in CGRP-sniffer HEK293 cells co-cultured with DRG neurons
# Experiment: Co-culture of DRG neurons and CGRP-sniffer cells (CGRP release)
# Type: cell-based, mouse
# Conditions: CGRPα saturating concentration 100–1000 nM; co-culture with WT and DKO DRG; n=18 wells per genotype
smiles,measurement,value
CC(C)C[C@H](NC(=O)CNC(=O)[C@H](C)NC(=O)[C@H](CC(C)C)NC(=O)[C@H](CCCNC(=N)N)NC(=O)[C@H](Cc1c[nH]cn1)NC(=O)[C@@H](NC(=O)[C@@H](NC(=O)[C@@H]1CSSC[C@H](NC(=O)[C@@H](N)CO)C(=O)N[C@@H](CC(N)=O)C(=O)N[C@@H]([C@@H](C)O)C(=O)N[C@@H](C)C(=O)N[C@@H]([C@@H](C)O)C(=O)N1)C(C)C)[C@@H](C)O)C(=O)N[C@@H](CC(C)C)C(=O)N[C@@H](CO)C(=O)N[C@@H](CCCNC(=N)N)C(=O)N[C@@H](CO)C(=O)NCC(=O)NCC(=O)N[C@H](C(=O)N[C@H](C(=O)N[C@@H](CCCCN)C(=O)N[C@@H](CC(=O)O)C(=O)N[C@@H](CC(N)=O)C(=O)N[C@@H](Cc1ccccc1)C(=O)N[C@H](C(=O)N1CCC[C@H]1C(=O)N[C@H](C(=O)N[C@@H](CC(N)=O)C(=O)N[C@H](C(=O)NCC(=O)N[C@@H](CO)C(=O)N[C@@H](CCC(=O)O)C(=O)N[C@@H](C)C(=O)N[C@@H](Cc1ccccc1)C(N)=O)C(C)C)[C@@H](C)O)C(C)C)C(C)C)C(C)C [CGRPα],CGRP-sniffer activation by exogenous CGRPα,activates CGRP-sniffers in both conditions
